Source: patent US11160742B2, “Methods and compositions for improving hair color fastness and rejuvenating hair color” (L'Oreal, priority 2018, dated 2021)

Test: Partition coefficient (Log Po/w) of direct dyes
Settings: octanol/water partition coefficient; for Log Po/w: table of dyes

Compound	Log Po/w	Log Po/w value
CNc1cc(OCC(O)CO)ccc1[N+](=O)[O-] (centres unmarked) [2-NITRO-5-GLYCERYL METHYLANILINE]	0.89	–
O=[N+]([O-])c1cc(O)ccc1NCCO [3-NITRO-P-HYDROXYETHYLAMINOPHENOL]	0.21	–
Nc1ccc(O)cc1[N+](=O)[O-] [4-AMINO-3-NITROPHENOL]	1.19	–
Nc1c(N=Nc2ccc([N+](=O)[O-])cc2)c(S(=O)(=O)[O-])cc2cc(S(=O)(=O)[O-])c(N=Nc3ccccc3)c(O)c12.[Na+].[Na+] [ACID BLACK 1]	1.2	–
CCN(Cc1cccc(S(=O)(=O)[O-])c1)c1ccc(C(=C2C=CC(=[N+](CC)Cc3cccc(S(=O)(=O)[O-])c3)C=C2)c2ccccc2S(=O)(=O)[O-])cc1.[Na+].[Na+] [ACID BLUE 9]	−0.32	–
Cc1ccc(Nc2ccc(Nc3ccc(C)cc3S(=O)(=O)[O-])c3c2C(=O)c2ccccc2C3=O)c(S(=O)(=O)[O-])c1.[Na+].[Na+] [ACID GREEN 25]	5.71	–
O=S(=O)([O-])c1ccc(N=Nc2c(O)ccc3ccccc23)cc1.[Na+] [ACID ORANGE 7]	1.4	–
O=S(=O)(O)c1cc(S(=O)(=O)O)c2c(/N=N\c3ccc(S(=O)(=O)O)c4ccccc34)c(O)ccc2c1 [ACID RED18]	1.63	–
Nc1cc(S(=O)(=O)[O-])cc2cc(S(=O)(=O)[O-])c(N=Nc3ccccc3)c(O)c12.[Na+].[Na+] [ACID RED 33]	0.5	–
CCN(CC)c1ccc2c(-c3ccc(S(=O)(=O)[O-])cc3S(=O)(=O)[O-])c3ccc(=[N+](CC)CC)cc-3oc2c1.[Na+] [ACID RED 52]	1.3	–
O=C([O-])C1=NN(c2ccc(S(=O)(=O)[O-])cc2)C(=O)C1N=Nc1ccc(S(=O)(=O)[O-])cc1.[Na+].[Na+].[Na+] (centres unmarked) [ACID YELLOW 23]	−10.17	–
O=C([O-])c1c(Cl)c(Cl)c(Cl)c(Cl)c1-c1c2cc(Br)c(=O)c(Br)c-2oc2c(Br)c([O-])c(Br)cc12.[Na+].[Na+] [ACIDE RED 92]	3	–
Cc1ccc(Nc2ccc(O)c3c2C(=O)c2ccccc2C3=O)c(S(=O)(=O)[O-])c1.[Na+] [ACIDE VIOLET 43]	3.1	–
C[N+](C)(C)c1cccc(N=C2C=C(N)c3c(O)c(Br)cc(N)c3C2=O)c1.[Cl-] [BASIC BLUE 99]	1.88	–
C[N+](C)(C)c1ccc2ccc(O)c(N=Nc3ccc(N)c([N+](=O)[O-])c3)c2c1.[Cl-] [BASIC BROWN 17]	−0.15	–
Cn1cc[n+](C)c1N=Nc1ccc(N)cc1.[Cl-] [BASIC ORANGE 31, Basic Orange 31]	−2.31	around −2.31

Compound	Log Po/w	Log Po/w value
CN(C)c1ccc(/N=N/c2n(C)cc[n+]2C)cc1 [BASIC RED 51, Basic Red 51]	−1.97	around −1.97
CC1=NN(c2ccccc2)C(=O)C1N=Nc1cccc([N+](C)(C)C)c1.[Cl-] (centres unmarked) [BASIC YELLOW 57]	0.06	–
CN(N=Cc1cc[n+](C)cc1)c1ccccc1 [BASIC YELLOW 87, Basic Yellow 87]	−1.69	around −1.67
Nc1ccc(N)c2c1C(=O)c1ccccc1C2=O [DISPERSE VIOLET 1]	3	–
O=[N+]([O-])c1cc(N(CCO)CCO)ccc1NCCO [HC BLUE NO. 2]	−0.32	–
O=C1c2ccccc2C(=O)c2c(NCC(O)CO)ccc(NCC(O)CO)c21 (centres unmarked) [HC BLUE NO. 14]	2.09	–
CC1=CC(=C(c2cc(C)c(N)c(C)c2)c2c(Cl)cccc2Cl)C=C(C)C1=N.O=P(O)(O)O [HC BLUE NO. 15]	3.47	–
NCCNc1ccc(OCCO)cc1[N+](=O)[O-] [HC ORANGE NO. 2]	0.13	–
Nc1ccc(NCCO)c([N+](=O)[O-])c1 [HC RED NO. 3]	−0.42	–
Cc1cc(N)c([N+](=O)[O-])cc1NCCO [HC VIOLET NO 1]	0.67	–
O=[N+]([O-])c1cc(N(CCO)CCO)ccc1NCCCO [HC VIOLET NO 2]	0.608	–
Cc1cc(N(CCO)CCO)ccc1N=Nc1ccc(N)cc1 [HC YELLOW NO. 7]	2.59	–
COc1ccc([N+](=O)[O-])c(NCCN)c1.Cl [HC YELLOW NO. 9]	1.3	–
COS(=O)(=O)[O-].C[N+]1(CCCNc2ccc(O)c3c2C(=O)c2ccccc2C3=O)CCOCC1 [HYDROXYANTHRAQUINONEAMINO-PROPYL METHYL MORPHOLINIUM METHOSULFATE]	0.89	–
ACID YELLOW 3	−1.05	–
HC RED NO. 7	0.13	–
